Test results reported in PubChem BioAssay (NCI).
Values joined by “and” are separate entries in the source; they are usually repeats but may differ in a detail not shown here. Identical values can stand only once.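 Growth conditions: 96-well plates. Treatment: test compound, 48 hours, 5 concentrations. Analysis: linear interpolation between bracketing concentrations; unreached endpoints set to highest concentration. GI50 is the concentration that inhibits growth by half. TGI is the concentration that stops growth completely.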

Tests used:
Assay in all cases: growth of human tumour cells (NCI), 48 h
IGROV1 ovarian = system: IGROV1 ovarian
HT29 colon = system: HT29 colon
786-0 renal = system: 786-0 renal
PC-3 prostate = system: PC-3 prostate
HL-60(TB) leukemia = system: HL-60(TB) leukemia
SK-MEL-2 melanoma = system: SK-MEL-2 melanoma
COLO 205 colon = system: COLO 205 colon
SF-539 CNS = system: SF-539 CNS
EKVX NSCLC = system: EKVX NSCLC
RXF 393 renal = system: RXF 393 renal

Row | Compound | GI50 (IGROV1 ovarian) [µM] | TGI (IGROV1 ovarian) | GI50 (HT29 colon) [µM] | TGI (HT29 colon) | GI50 (786-0 renal) [µM] | TGI (786-0 renal) | GI50 (PC-3 prostate) [µM] | TGI (PC-3 prostate) [µM] | GI50 (HL-60(TB) leukemia) [µM] | TGI (HL-60(TB) leukemia) | GI50 (SK-MEL-2 melanoma) [µM] | TGI (SK-MEL-2 melanoma) | GI50 (COLO 205 colon) [µM] | TGI (COLO 205 colon) | GI50 (SF-539 CNS) [µM] | TGI (SF-539 CNS) | GI50 (EKVX NSCLC) [µM] | TGI (EKVX NSCLC) [µM] | GI50 (RXF 393 renal) [µM] | TGI (RXF 393 renal) [µM]
1 | CCC(=C(c1ccc(OCCN(CC)CC)cc1)c1ccc(OCCN(CC)CC)cc1)c1ccc(Cl)cc1 | 0.618 | 1.15 µM | 0.51 | 1.15 µM | 0.565 | 1.08 µM | 0.581 | 1.24 | 0.626 | 1.32 µM | 0.634 | 1.27 µM | 0.631 | 1.32 µM | 0.552 | 1.04 µM | 0.641 | 1.46 | 0.485 | 0.962
2 | C/C(=N\NC(=O)c1ccncc1)c1ccccc1O | 1.8 | > 100 µM | 1.6 | > 100 µM | 2.94 | 21.3 µM | 8.66 | > 100 | 2.96 | 11.6 µM | > 100 | > 100 µM | 2.62 | > 100 µM | 2.78 | > 100 µM | 2.34 | > 100 | 8.15 | > 100
3 | CCn1c(SC)nnc1-c1cc2c([nH]c3ccccc32)c(-c2cccc(O)c2)n1 | 2.57 | 52 µM | 3.41 | 12.5 µM | 2.77 | 10.9 µM | 2.83 | > 100 | 0.929 | 7.86 µM | 1.88 | 7.6 µM | 9.49 | 27.5 µM | 1.46 | 3.74 µM | 3.02 | 26.2 | 1.14 | 3.18
4 | O=C(NCc1cccnc1)c1ccc([N+](=O)[O-])o1 | 4.52 | > 24.5 µM | 0.825 | 2.37 µM | 2.9 | 16.6 µM | 2.52 | > 19.1 | 8.44 | 25 µM | 4.91 | 14.4 µM | 0.659 | 1.28 µM | 1.12 | 3.76 µM | 13.3 | > 32.5 | 1.15 | 5.12
5 | Cc1c(N)nc(C2CC(=O)N2CC(N)C(N)=O)nc1C(=O)NC(C(=O)NC(C)C(O)C(C)C(=O)NC(C(=O)NCCc1nc(-c2nc(C(=O)NCCNCC(C)O)cs2)cs1)C(C)O)C(OC1OC(CO)C(O)C(O)C1OC1OC(CO)C(O)C(OC(N)=O)C1O)c1cnc[nH]1 (configuration not stated) | 13.4 | 50 µM and > 100 µM | 33.1 | 50 µM and > 100 µM | 2.3 | 50 µM and 36.8 µM | – | > 50 | 24.4 | 50 µM and > 37.4 µM | 31.7 | 50 µM and > 79.2 µM | 33.6 | 50 µM and 36.6 µM | 0.0499 | 1.32 µM and 0.255 µM | > 50 | > 88.9 | – | 0.425
6 | Cn1c(=O)c(-c2c(Cl)cccc2Cl)cc2cnc(Nc3ccc(N4CCOCC4)cc3)nc21 | – | 1.33 µM | < 0.0467 | 1.17 µM | < 0.01 | 0.519 µM | 0.474 | > 100 | 0.0137 | 0.216 µM | 2.48 | > 100 µM | < 0.0125 | 0.477 µM | < 0.0451 | 0.113 µM | 0.798 | > 30.9 | 1.36 | 3.86
7 | Cc1cccc(Cc2cnc(NC(=O)CCCOc3ccc(Cl)cc3)s2)c1 | 9.21 | > 100 µM | 3.49 | > 100 µM | 5.95 | > 100 µM | 4.58 | > 100 | 2.24 | 5.1 µM | > 100 | > 100 µM | 4.46 | > 100 µM | 5.13 | > 100 µM | 45 | > 100 | 9.58 | > 100
